Reference: ChEMBL document CHEMBL1201862, “PubChem BioAssay data set” (2004)
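Following 48 hours of exposure in 96-well plates, responses at five concentrations were used to interpolate endpoints linearly. The concentration for 50% growth inhibition is given as GI50.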 Active and inactive are the calls of the source. Cut-off read from the data, not from the text of the source: active = GI50 up to about 1.1 µM and inactive = higher.

Columns and labels:
Test in all cases: growth of human tumour cells (NCI), 48 h
ACHN = tested on: ACHN
CAKI-1 = tested on: CAKI-1
DMS-273 = tested on: DMS-273
EKVX = tested on: EKVX
HCC 2998 = tested on: HCC 2998
HOP-18 = tested on: HOP-18
M14 = tested on: M14
M19-MEL = tested on: M19-MEL
SF-539 = tested on: SF-539
SNB-78 = tested on: SNB-78
SR = tested on: SR
TK-10 = tested on: TK-10
MCF7 = tested on: MCF7
NCI/ADR-RES = tested on: NCI/ADR-RES

Measured: GI50

N#CC1=C(O)NC(O)=C(C#N)C1c1c(Cl)cccc1Cl
inactive: ACHN 33.3 µM | CAKI-1 30.1 µM | DMS-273 26.2 µM | EKVX 40.7 µM | HCC 2998 7.93 µM | HOP-18 > 100 µM | M14 26.9 µM | M19-MEL 21.4 µM | SF-539 20 µM | SNB-78 26.2 µM | SR > 100 µM | TK-10 40.4 µM

Cc1ccc(C#CS(=O)(=O)C(F)(F)F)cc1
inactive: DMS-273 > 100 µM | EKVX > 100 µM | HCC 2998 > 100 µM | HOP-18 > 100 µM | M19-MEL > 100 µM | MCF7 > 100 µM | NCI/ADR-RES > 100 µM | SF-539 > 100 µM | SNB-78 > 100 µM

COC1C(O)C(n2ncc3c(SC)nc(SC)nc32)OC1C(O)CO (centres undefined)
inactive: DMS-273 > 100 µM | EKVX > 100 µM | HCC 2998 > 100 µM | HOP-18 > 100 µM | M19-MEL > 100 µM | MCF7 > 100 µM | NCI/ADR-RES > 100 µM | SF-539 > 100 µM | SNB-78 > 100 µM

CCOC(=O)c1c[nH]c2cc3c(cc2c1=O)CCS3(=O)=O.CCOC(=O)c1c[nH]c2ccc3c(c2c1=O)S(=O)(=O)CC3
inactive: CAKI-1 > 100 µM | DMS-273 > 100 µM | EKVX > 100 µM | HCC 2998 > 100 µM | HOP-18 97.1 µM | M19-MEL > 100 µM | MCF7 83.8 µM | NCI/ADR-RES > 100 µM | SF-539 > 100 µM | SNB-78 > 100 µM

O=C1NC(=O)C(CCO)(c2ccccc2)C(=O)N1
inactive: DMS-273 > 100 µM | EKVX > 100 µM | HCC 2998 > 100 µM | HOP-18 > 100 µM | M19-MEL > 100 µM | MCF7 > 100 µM | NCI/ADR-RES > 100 µM | SF-539 > 100 µM | SNB-78 > 100 µM

O=C(O)c1ccc(Nc2c3ccccc3nc3ccccc23)cc1
inactive: CAKI-1 49.9 µM | DMS-273 38.9 µM | EKVX > 100 µM | HCC 2998 > 100 µM | HOP-18 > 100 µM | M19-MEL 66.7 µM | MCF7 71.1 µM | NCI/ADR-RES > 76 µM | SF-539 > 78.2 µM | SNB-78 30.8 µM

c1ccc2c(c1)NCc1cc3ccccc3nc1O2
inactive: CAKI-1 > 100 µM | DMS-273 > 100 µM | EKVX > 100 µM | HCC 2998 > 100 µM | HOP-18 > 100 µM | M19-MEL > 100 µM | MCF7 16 µM | NCI/ADR-RES > 77.8 µM | SF-539 > 100 µM | SNB-78 > 100 µM
